Results as given in ChEMBL document CHEMBL1681724, “Discovery of potent and orally bioavailable heterocycle-based cannabinoid CB1 receptor agonists” (Bioorg Med Chem Lett, 2011).
In brackets after ≈: the same amount, converted by molar mass.

Tests used:
[1] = Aqueous solubility of the compound at pH 7.4; assay type: physicochemical; details: aqueous medium
Cannabinoid receptor 1 [2] = molecular target: T1, Cannabinoid receptor 1 (Homo sapiens, UniProt P21554); assay: Agonist activity at human cannabinoid CB1 receptor expressed in CHO cells by luciferase reporter gene assay; assay type: functional, cell-based
[3] = Tmax in rat at 5 mg/kg, po; assay type: ADME, organism-based; set-up: dose 5 mg/kg, route oral; details: in vivo
[4] = Apparent permeability from basolateral to apical side of human Caco2 cells; assay type: ADME, cell-based; details: Caco-2
[5] = Clearance in rat at 0.4 mg/kg, iv; assay type: ADME, organism-based; set-up: dose 0.4 mg/kg, route intravenous; details: in vivo
[6] = Genotoxicity in Salmonella Typhimurium at 10^-4 M by Ames test; assay type: toxicity; details: salmonella enterica subsp. enterica serovar typhimurium, 100 µM
[7] = AUC in rat plasma at 0.4 mg/kg, iv; assay type: ADME, organism-based; set-up: dose 0.4 mg/kg, route intravenous
[8] = Apparent permeability from apical to basolateral side of human Caco2 cells; assay type: ADME, cell-based; details: Caco-2
Cannabinoid receptor 1 [9] = molecular target: T1, Cannabinoid receptor 1; assay: Displacement of [3H]CP55940 from human cannabinoid CB1 receptor expressed in insect Sf9 cells
[10] = Oral bioavailability in rat at 5 mg/kg; assay type: ADME, organism-based; details: in vivo
[11] = Cmax in rat at 5 mg/kg, po; assay type: ADME, organism-based; set-up: dose 5 mg/kg, route oral; details: in vivo
[12] = Volume of distribution at steady state in rat at 0.4 mg/kg, iv; assay type: ADME, organism-based; set-up: dose 0.4 mg/kg, route intravenous; details: in vivo, read-out: Vdss
[13] = AUC in rat plasma at 5 mg/kg, po; assay type: ADME, organism-based; set-up: dose 5 mg/kg, route oral
[14] = Half life in rat at 0.4 mg/kg, iv; assay type: ADME, organism-based; set-up: dose 0.4 mg/kg, route intravenous; details: in vivo
Cannabinoid receptor 2 = Cannabinoid receptor 2 (Homo sapiens, UniProt P34972); assay: Displacement of [3H]CP55940 from human cannabinoid CB2 receptor expressed in insect Sf9 cells
Cannabinoid receptor 2, sequence (P34972 whole entry): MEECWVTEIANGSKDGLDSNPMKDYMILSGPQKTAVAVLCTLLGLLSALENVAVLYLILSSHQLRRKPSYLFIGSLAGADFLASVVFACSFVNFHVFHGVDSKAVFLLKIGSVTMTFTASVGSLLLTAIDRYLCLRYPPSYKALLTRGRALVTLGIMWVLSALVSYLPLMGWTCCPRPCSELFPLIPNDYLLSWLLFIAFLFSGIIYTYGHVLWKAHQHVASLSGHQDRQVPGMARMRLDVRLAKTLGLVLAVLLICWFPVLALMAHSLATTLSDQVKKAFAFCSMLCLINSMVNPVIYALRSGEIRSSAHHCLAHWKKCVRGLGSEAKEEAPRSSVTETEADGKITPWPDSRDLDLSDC

T1 sequence (P21554 whole entry): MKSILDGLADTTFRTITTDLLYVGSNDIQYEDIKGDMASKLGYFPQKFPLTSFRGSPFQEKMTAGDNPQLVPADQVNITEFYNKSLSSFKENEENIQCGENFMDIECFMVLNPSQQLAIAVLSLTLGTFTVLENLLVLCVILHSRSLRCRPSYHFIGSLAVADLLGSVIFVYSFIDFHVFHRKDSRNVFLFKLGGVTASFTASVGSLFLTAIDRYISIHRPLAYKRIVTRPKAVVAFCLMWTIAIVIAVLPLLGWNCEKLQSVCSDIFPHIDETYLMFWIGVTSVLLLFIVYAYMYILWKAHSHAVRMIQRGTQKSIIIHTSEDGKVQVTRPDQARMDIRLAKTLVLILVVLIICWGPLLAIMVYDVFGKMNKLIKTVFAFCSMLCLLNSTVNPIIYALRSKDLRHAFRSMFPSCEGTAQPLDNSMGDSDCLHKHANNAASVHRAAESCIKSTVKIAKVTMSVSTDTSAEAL

SMILES | solubility [1] [µg/mL] | EC50 (Cannabinoid receptor 1 [2]) [nM] | other results
COCCN(C)Cc1nc(-c2cn(CC3CCOCC3)c3c(Cl)cccc23)ns1 | < 1 | 79.4 | –
Clc1cccc2c(-c3nsc(CN4CCCC4)n3)cn(CC3CCCCC3)c12 | < 1 | 15.8 | –
Clc1cccc2c(-c3nsc(CN4CCCC4)n3)cn(CC3CCOCC3)c12 | < 1 | – | –
CC(=O)N[C@@H]1CCN(Cc2nc(-c3cn(CC4CCOCC4)c4c(Cl)cccc34)ns2)C1 | 16 (≈ 33.8 µM) | 794 | –
OC[C@H]1CCCN1Cc1nc(-c2cn(CC3CCOCC3)c3c(Cl)cccc23)ns1 | < 1 | 15.8 | –
O=C(O)C1CCCN1Cc1nc(-c2cn(CC3CCOCC3)c3c(Cl)cccc23)ns1 (stereo not drawn) | 108 (≈ 234 µM) | 158 | –
NC(=O)CNC(=O)[C@@H]1CCCN1Cc1nc(-c2cn(CC3CCOCC3)c3c(Cl)cccc23)ns1 | 15 (≈ 29 µM) | 398 | –
CN(CCO)Cc1nc(-c2cn(CC3CCOCC3)c3c(Cl)cccc23)ns1 | < 1 | 79.4 | –
COCCN(Cc1nc(-c2cn(CC3CCOCC3)c3c(Cl)cccc23)ns1)S(C)(=O)=O | < 1 | – | –
CS(=O)(=O)N(CCO)Cc1nc(-c2cn(CC3CCOCC3)c3c(Cl)cccc23)ns1 | < 1 | – | –
COCCN(C)Cc1nc(-c2cn(CC3CCS(=O)(=O)CC3)c3c(Cl)cccc23)ns1 | < 1 | 200 | –
Clc1cccc2c(-c3noc(CN4CCCC4)n3)cn(CC3CCOCC3)c12 | < 1 | 100 | –
CN(CC(N)=O)Cc1nc(-c2cn(CC3CCOCC3)c3c(Cl)cccc23)no1 | 21 (≈ 50.3 µM) | – | Tmax [3]: 1 h; Papp B→A [4]: 12.7 ×10⁻⁶ cm/s; clearance [5]: 28 mL/min/kg; Activity [6]: Non-toxic; AUC [7]: 244 ng·h/mL; Papp A→B [8]: 8.3 ×10⁻⁶ cm/s; Ki (Cannabinoid receptor 1 [9]): 3.98 nM; bioavailability [10]: 53%; Cmax [11]: 173 ng/mL; Vd [12]: 3 L/kg; AUC [13]: 1570 ng·h/mL; half-life [14]: 1.4 h; Ki (Cannabinoid receptor 2): 6.31 nM
CN(CC(=O)NCCO)Cc1nc(-c2cn(CC3CCOCC3)c3c(Cl)cccc23)no1 | 88 (≈ 190 µM) | – | –
CN(Cc1nc(-c2cn(CC3CCOCC3)c3c(Cl)cccc23)no1)[C@@H](CO)C(N)=O | 95 (≈ 212 µM) | 251 | –
O=C(NCCO)C1CCN(Cc2nc(-c3cn(CC4CCOCC4)c4c(Cl)cccc34)no2)CC1 | 115 (≈ 229 µM) | 126 | –
COCC(=O)NCc1nc(-c2cn(CC3CCOCC3)c3c(Cl)cccc23)no1 | 4 (≈ 9.55 µM) | – | –
CCNC(=O)NCc1nc(-c2cn(CC3CCOCC3)c3c(Cl)cccc23)no1 | < 1 | 2000 | –
CN(C)S(=O)(=O)N(C)Cc1nc(-c2cn(CC3CCOCC3)c3c(Cl)cccc23)no1 | < 1 | 31.6 | –
CC(C)N(CCO)Cc1csc(-c2c(CC3CCOCC3)[nH]c3c(Cl)cccc23)n1 | > 10 | ≤ 100 | bioavailability [10]: 4%
